# Where a name gives a salt, the structure may show the parent alone.
# B1: interferon-gamma: interferon-gamma (protein, UniProt P01579 24-161, looked up)
# Interferon gamma: QDPYVKEAENLKKYFNAGHSDVADNGTLFLGILKNWKEESDRKIMQSQIVSFYFKLFKNFKDDQSIQKSVETIKEDMNVKFFNSNKKKRDDFEKLTNYSVTDLNVQRKAIHELIQVMAELSPAAKTGKRKRSQMLFRG
# Experiments:
# [1] = tested on: Ep-CAM antigen on HT-29 colon adenocarcinoma cells; assay: Internalization of lutetium-177-labeled GW1208W95 (anti-Ep-CAM); format: cell-based, human; settings: HT-29 cells pretreated with drug; 37° C
# Description: Internalization of Lutetium-177-labeled GW1208W95 (anti-Ep-CAM) by Human Colon Adenocarcinoma Cells. Colon adenocarcinoma cells (HT-29) were plated in 6-well plates and cultured. Subconfluent cells were exposed to cytotoxic drugs for up to 24 hours. Cells were washed and cultured for another 2-5 days. The plates were put on ice (0° C.) for minimum of 60 minutes and lutetium-177-labeled coupled to 6,6″-bis {N,N,N″,N″-tetra(carboxymethyl)aminomethyl)-4′-(3-bromoacetamido-4-methoxyphenyl-2,2′:6,2″-terpyridine) at 0.5-1.0 mCi/mg was added at a final concentration of 6.7 nM. Cells were incubated at 0° C. for 3.5 hr. Following incubation at 0° C., the cells were washed with 2.5 mL of ice-cold phosphate-buffered saline with human serum albumin (1%) (PBS-HSA). Then 2.5 mL pre-warmed media was added and the labeled cells were incubated at 37° C. At the indicated time points, cells were washed twice with 2.5 mL PBS-HSA. Cells were incubated for 5 minutes at room temperature with 2.5 mL 0.1 M NaCl in 0.05 M glycine (pH 2.8) to detemine labeled antibody bound to the target surface antigen. The incubation was repeated and counts pooled. Internalized counts were determined by solubilization of the cell layer with 1.0 mL of 1 N NaOH. Samples were counted using a Packard CliniGamma 5000. Data was normalized to cell count for each well.
# Colon adenocarcinoma cells (HT-29) in culture were pretreated with chemotherapeutic agents as described previously for the evaluation of cell cycle and cell surface antigen quantitation. […] Cells were pulse-labeled with ^177Lu-GW1208W95 (6.7 nM @ 0.5-1.0 mCi/mg protein) for a minimum of 60 minutes at 0° C. on ice to inhibit surface antigen internalization. After washing away of excess radiolabeled antibody fresh media was added, and the cells were incubated at 37° C. for time indicated. Surface-bound antibody was eluted with isotonic buffer and both acid-labile (surface-bound) and acid-stable (internalized) radioactivity were quantitated.
# [2] = tested on: HT-29 colon adenocarcinoma tumors; assay: Targeting of 177Lu-labelled antibody to Ep-CAM-positive HT-29 xenografts; format: in vivo, mouse
# Description: Human colon adenocarcinoma (HT-29) tumors were initiated by subcutaneous implantation into female CD-1 nude mice (Charles River). When the tumors reached 200-300 mg, animals were divided into groups of five. […] A control group was dosed with 5-fluorouracil (5-FU) intraperitoneally at 20 mg/kg on days 1 and 5. […] Blood, spleen, liver, lung, kidney, femur, and tumor were harvested on days 1, 3 and 5 post-antibody-dose for direct gamma counting (Packard).
# [3] = Navelbine tolerability in CD-1 nude mice; settings: intravenous, days 1 and 5, CD-1 nude mice
# Description: Human colon adenocarcinoma (HT-29) tumors were initiated by subcutaneous implantation into female CD-1 nude mice (Charles River). When the tumors reached 200-300 mg, animals were divided into groups of five. Navelbine was injected intravenously at a dosage of 28 mg/kg in vehicle (5% dextrose in distilled water) on days 1 and 5.
# [4] = tested on: erbB2 receptor on MCF-7 and MDA-MB-468 breast adenocarcinoma cells; assay: Quantitation of cell surface erbB2 presentation; format: cell-based; settings: for cell surface erbB2 presentation: compared with untreated controls (Example 2); for cell surface presentation of erbB2 receptor: Example 3
# Description: (§1) Populations of adenocarcinoma cells were evaluated for distribution in G0/G1, S and G2/M phases of the cell cycle as well as for erbB2/neu presentation. Cells were dissociated from the culture plates using Versene (Gibco) and resuspended in calcium- and magnesium-free phosphate-buffered saline containing bovine serum albumin and sodium azide. Exactly 2×10^5 cells were stained with R-Phycoerythrin-conjugated-anti-HER-2/neu murine IgG (Cat. 340552, Becton Dickinson) in buffer containing 100 μg/mL mouse IgG (Cat. 15381, Sigma). Cells were fixed with FACSLyse (Cat. 92-002, Becton Dickinson) followed by a short post-fix with ethanol at −20° C. Cellular DNA was stained with DAPI (Cat. D1306, Molecular Probes) in buffer containing RNase A (Sigma).
# Sample data were collected on a FACStar^PLUS® flow cytometer (Becton Dickinson) equipped with a 488 nm argon ion laser in position 1 and a 350 nm argon ion laser in position 2. For each cell analyzed, data was collected on signal pulses from linear forward scatter height and width, linear area and width of DAPI fluorescence for DNA, and logarithmic fluorescence height of the HER-2/neu antibody probe. The resulting listmode files were processed using Winlist 3D© software (Verity Software House, Topsham, Me.). […] The remaining cells were analyzed for cell cycle position by manual gating and HER-2/neu surface antigen density. Using the bead standard system described in Example 2, values of mean fluorescence intensity for HER-2/neu and other antigens were converted to values of “Antibodies Bound per Cell” (ABC) during analysis.
# Cells were exposed to Gemzar (gemcitabine (GMZ), Lilly, Indianapolis, Ind.) for 24 hours. […] Following drug exposure, cells were washed and cultured for another 2-5 days prior to analysis for antigen presentation and cell cycle status, except for those treated with BB-94. Cells were dissociated from the culture plates using Versene (Gibco) and resuspended in calcium- and magnesium-free phosphatebuffered saline containing bovine serum albumin and sodium azide. Exactly 2×10^5 cells were stained as described in Example 1. Antigen presentation was quantified against calibrated bead standards calibrated by the vendor for murine IgG binding capacity (Quantum Simply Cellular Bead, Cat. QSC-100, Sigma); calibration beads were stained with R-phycoerythrin-conjugated anti-HER-2/neu murine IgG. Plots of fluorescence intensity against bead IgG binding capacity were constructed, and molecules of IgG bound per cell was read from the fluorescence intensity of the stained cells.
# Cells were exposed to interferons continuously for 2-5 days. […] Exactly 2×10^5 cells were stained as described in Example 1, and antigen expression was quantified as described in Example 2.
# [5] = tested on: erbB2 receptor on NHBE and HMEC normal epithelial cells; assay: Quantitation of cell surface erbB2 presentation on normal epithelial cells; format: cell-based, human; settings: compared with untreated controls
# Description: Cells were exposed to Gemzar (gemcitabine (GMZ), Lilly, Indianapolis, Ind.) or 5FU (Adrucil®, Pharmacia & Upjohn) for 24 hours. Cells were exposed to interferons continuously for 2-5 days. Following drug exposure, cells were washed and cultured for another 2-5 days prior to analysis for antigen presentation and cell cycle status, except for those treated with interferons. Cells were dissociated from the culture plates using a collagenase cocktail (1:1:1,Types I, II, and IV, 0.1% (wt/vol), Gibco) in calcium- and magnesium-free phosphate-buffered saline. Cells were stained and cytometric data was collected as described in Example 1, and antigen expression was quantified as described in Example 2.
# [6] = tested on: PC-3 prostatic adenocarcinoma cells; settings: PC-3 cells; Navelbine 30 nM alone or with cisplatin; GW3622W94; human PBMC effectors 50:1; 6 hours
# Description: Ep-CAM Antigen Expression and ADCC of Prostatic Adenocarcinoma in Culture. Biological Effectiveness in vitro as Measured by Antibody-dependent Cellular Cytotoxicity. […] Target cells were cultured overnight with 100 μCi Na2^51CrO4 (Amersham) in media, and then washed 3 times with RPMI-1640 containing 2 mM L-glutamine, 50 μg/mL gentamicin, and 10% heat-inactivated FBS. […] Spontaneous lysis wells (CPMspontaneous) received media (no effectors) and total lysis wells (CPMTotal) received Triton-X-100. Cultures were incubated for 6 hours at 37° C./5% CO2, then supernatants were harvested using Skatron filter frames (Skatron Instruments, Sterling Va.). Radioactivity was counted in a gamma counter and the percentage specific release, corrected for spontaneous lysis, was calculated.
# [7] = tested on: Ep-CAM antigen on HT-29 colon adenocarcinoma cells; assay: Quantitation of cell surface Ep-CAM antigen with FITC-323/A3; format: cell-based, human; settings: HT-29 cells after drug exposure, vs media control
# Description: (§2) FIG. 7. Cell Cycle Analysis and Quantitation of Antigen Expression. Populations of adenocarcinoma cells were evaluated for distribution in G0/G1, S, and G2/M phases of the cell cycle as well as Ep-CAM presentation on the cell surface. […] Cells were exposed to 5-fluorouracil (5-FU) for 24 hours, and to the interferons continuously for 2-5 days. Cells were washed and cultured for another 2 days prior to analysis for antigen presentation except for cells exposed to interferons. Cells were lightly trypsinized and mechanically detached from the culture flasks and resuspended in calcium- and magnesium-free phosphate-buffered saline containing bovine serum albumin and sodium azide. Exactly 2×10^5 cells were stained with FITC-323/A3 murine IgG antibody or FITC-murine IgG (control). Cells were fixed with cold paraformaldehyde, then permeabilized for DNA staining with Tween-20. Cellular DNA was stained with a propidium iodide buffer containing RNAse A. Listmode data were acquired using Lysis II software on a FACScan flow cytometer (Becton Dickinson Immunocytometry Systems) equipped with a 488 nm laser. Cell cycle analysis was done using CellFit software for SOBR modeling of the histograms (where possible, otherwise manual estimations were employed) on Cell-Fit. Ep-CAM antigen presentation was quantitated by comparison of the mean fluorescence intensity of fluorescein-conjugated 323/A3 bound to cultured cells with the fluorescence intensity of calibrated microbead standards and evaluated separately using histogram analysis in WinList (Verity Software House). Standard curves of calibration bead concentration versus fluorescence intensity were constructed in SoftMax Pro (Molecular Devices, Inc.), and fluorescence intensity of stained cells was used to calculate the number of antigen molecules per cell for the population.
# (§3) Adenocarcinoma cells (HT-29) were exposed to Navelbine or Taxol or combinations of drugs as indicated in FIG. 7 and the cells were evaluated for cell surface Ep-CAM presentation in addition to cell cycle distribution. […]
# [8] = tested on: HT-29 colon adenocarcinoma cells; assay: Cell cycle analysis by flow cytometry (propidium iodide); format: cell-based, human; settings: HT-29 cells; media control 6.3%
# Description: as §2, §3
# [9] = tested on: BT-474 breast and NCI H322 lung adenocarcinoma cells; assay: Cell cycle analysis by flow cytometry (DAPI), high erbB2 cell lines; format: cell-based; settings: BT-474 and H322; BB-94 10 μM alone
# Description: (§4) Cells were dissociated from the culture plates using Versene (Gibco) and resuspended in calcium- and magnesium-free phosphate-buffered saline containing bovine serum albumin and sodium azide. Exactly 2×10^5 cells were stained with R-Phycoerythrin-conjugated-anti-HER-2/neu murine IgG (Cat. 340552, Becton Dickinson) in buffer containing 100 μg/mL mouse IgG (Cat. 15381, Sigma). Cells were fixed with […]. 92-002, Becton Dickinson) followed by a short post-fix with ethanol at -20° C. Cellular DNA was stained with DAPI (Cat. D1306, Molecular Probes) in buffer containing RNase A (Sigma). […] For each cell analyzed, data was collected on signal pulses from linear forward scatter height and width, linear area and width of DAPI fluorescence for DNA, and logarithmic fluorescence height of the HER-2/neu antibody probe. […] The remaining cells were analyzed for cell cycle position by manual gating and HER-2/neu surface antigen density. Using the bead standard system described in Example 2, values of mean fluorescence intensity for HER-2/neu and other antigens were converted to values of “Antibodies Bound per Cell” (ABC) during analysis. […] Antigen presentation was quantified against calibrated bead standards calibrated by the vendor for murine IgG binding capacity (Quantum Simply Cellular Bead, Cat. QSC-100, Sigma); calibration beads were stained with R-phycoerythrin-conjugated anti-HER-2/neu murine IgG. […]
# [10] = tested on: erbB2 receptor on BT-474 breast and NCI H322 lung adenocarcinoma cells; assay: Quantitation of cell surface erbB2 presentation, high erbB2 cell lines; format: cell-based; settings: BT-474 and H322
# Description: as §4
# [11] = tested on: SK-BR-3, MCF-7 and BT-474 breast adenocarcinoma cell lines; format: cell-based
# Description: Cells were exposed to Gemzar (gemcitabine (GMZ), Lilly, Indianapolis, Ind.) for 24 hours. […] Cells were exposed to interferons continuously for 2-5 days.
# [12] = tested on: MCF-7 and MDA-MB-468 breast adenocarcinoma cells; assay: Cell cycle analysis by flow cytometry (DAPI); format: cell-based; settings: Example 3
# Description: as §1, with “Cellular DNA was stained with DAPI (Cat. D1306, Molecular Probes) in buffer containing RNase A (Sigma).” left out
# Sample data were collected on a FACStar^PLUS® flow cytometer (Becton Dickinson) equipped with a 488 nm argon ion laser in position 1 and a 350 nm argon ion laser in position 2. For each cell analyzed, data was collected on signal pulses from linear forward scatter height and width, linear area and width of DAPI fluorescence for DNA, and logarithmic fluorescence height of the HER-2/neu antibody probe. […] The remaining cells were analyzed for cell cycle position by manual gating and HER-2/neu surface antigen density. Using the bead standard system described in Example 2, values of mean fluorescence intensity for HER-2/neu and other antigens were converted to values of “Antibodies Bound per Cell” (ABC) during analysis. […]
molecule,measurement,setting,value
"CCC1=C[C@@H]2CN(C1)Cc1c([nH]c3ccccc13)[C@@](C(=O)OC)(c1cc3c(cc1OC)N(C)[C@H]1[C@@](O)(C(=O)OC)[C@H](OC(C)=O)[C@]4(CC)C=CCN5CC[C@]31[C@@H]54)C2 (relative stereo) [Navelbine, 3′, 4′-didehydro-4′-deoxy-C′-norvincaleukoblastine [R-(R*,R*)-2,3-dihydroxybutanedioate (1:2)(salt)]]",internalization of the radiolabelled antibody 177Lu-GW1208W95,[1],significantly inhibited internalization
same,tumor regression,"[2]; Navelbine 28 mg/kg i.v. days 1 and 5, HT-29 xenografts",minimal tumor regression
same,increase in tumor targeting of 177Lu-labelled antibody,"[2]; Navelbine pretreatment 28 mg/kg i.v. days 1 and 5, relative to vehicle- or 5-FU-treated animals",2 fold
same,LD10,[3],~28 mg/kg
same,cell surface erbB2 presentation,[4],significant increases
same,cell surface erbB2 presentation,[5],no significant increases
same,ADCC lysis of antibody-coated tumor target cells after drug pre-treatment,[6],improved
"O=c1[nH]cc(F)c(=O)[nH]1 [5-FU, 5-fluorouracil]",internalization of the radiolabelled antibody 177Lu-GW1208W95,[1],extensive internalization
same,cell surface Ep-CAM expression,[7],not significantly increased
same,cells in S and G2/M phases combined,[8],7.9%
CNC(=O)[C@H](Cc1ccccc1)NC(=O)[C@H](CC(C)C)[C@H](CSc1cccs1)C(=O)NO [BB-94],cell cycle distribution,[9],did not affect cell cycle distribution
same,cell surface erbB2 presentation,[10],increase in erbB2 presentation
"Nc1ccn([C@@H]2O[C@H](CO)[C@@H](O)C2(F)F)c(=O)n1 [Gemzar, gemcitabine]",toxicity to cell lines based on the 18 s values,[11],toxic
same,cell surface erbB2 presentation,[10],significant increases
"CC(=O)O[C@H]1C(=O)[C@@]2(C)[C@H]([C@H](OC(=O)c3ccccc3)[C@]3(O)C[C@H](OC(=O)[C@H](O)[C@@H](NC(=O)c4ccccc4)c4ccccc4)C(C)=C1C3(C)C)[C@]1(OC(C)=O)CO[C@@H]1C[C@@H]2O [Taxol, 5β, 20 epoxy-1,2α,4,7β,10β,13α-hexahydroxytax-11-en-9-one 4,10-diacetate 2-benzoate 13-ester with (2R, 3S)-N-benzoyl-3-phenylisoserine]",internalization of the radiolabelled antibody 177Lu-GW1208W95,[1],significantly inhibited internalization
same,cell surface erbB2 presentation,[4],significant increases
same,cell surface erbB2 presentation,[5],no significant increases
interferon-alpha,cell surface Ep-CAM expression,[7],not significantly increased
same,cells in S and G2/M phases combined,[8],12%
same,cell cycle distribution,[12],not significantly different from media control cells
same,cell surface presentation of erbB2 receptor,[4],not significantly increased
interferon-gamma: interferon-gamma,cell surface Ep-CAM expression,[7],not significantly increased
same,cells in S and G2/M phases combined,[8],11.5%
same,cell cycle distribution,[12],not significantly different from media control cells
same,cell surface presentation of erbB2 receptor,[4],not significantly increased
B1,toxicity to cell lines based on the 18 s values,[11],toxic

# Reference: patent publication US20030138430A1, “Pharmaceutical comprising an agent that blocks the cell cycle and an antibody” (priority 2002, published 2003)
